Results on 23 molecules are retold here after US8293917B2, “Pyrazole compounds as CCR1 antagonists” (Boehringer Ingelheim International GmbH, priority 2008, dated 2012).

Molecules are shown by their SMILES. Values joined by “and” are separate entries in the source; they are usually repeats but may differ in a detail not shown here. Equal entries are not always repeated.

In general, IC50 refers to the concentration needed to halve the response being measured.

The target in the experiment is T1, CCR1 (Homo sapiens, UniProt P32246).
T1 construct: host or cells: non-adherent cells
T1 sequence (P32246 1-355): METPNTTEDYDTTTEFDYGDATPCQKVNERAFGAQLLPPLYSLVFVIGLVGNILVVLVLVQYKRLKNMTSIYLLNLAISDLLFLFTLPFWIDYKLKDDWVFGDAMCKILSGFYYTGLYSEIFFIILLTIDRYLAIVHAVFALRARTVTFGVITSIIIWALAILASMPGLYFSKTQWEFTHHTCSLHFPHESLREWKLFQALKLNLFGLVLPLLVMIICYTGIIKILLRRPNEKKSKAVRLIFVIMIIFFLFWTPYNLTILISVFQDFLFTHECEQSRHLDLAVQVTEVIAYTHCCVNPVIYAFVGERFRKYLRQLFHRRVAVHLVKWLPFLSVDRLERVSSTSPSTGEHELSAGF
Briefly: functional cellular assay measuring calcium flux in response to MIP1α in CCR1-transfected cells (Method A or Method B). It is filed as cell-based. The conditions noted are these: cells stably expressing recombinant CCR1 and G-alpha-16; MIP-1alpha added at EC80; method (A: FLIPR TETRA, B: FDSS6000) not stated per compound. As to the method:
Compounds are assessed for the ability to block the interaction of CCR1 and its ligands in a functional cellular assay measuring calcium flux in response to MIP1α in CCR1-transfected cells.
Method A: Non-adherent cells purchased from Chemicon Corporation (HTS005C), stably expressing recombinant CCR1 and G-alpha-16 are grown in RPMI 1640 medium (Mediatech 10-080-CM) supplemented with 10% heat-inactivated FBS, 0.4 mg/mL Geneticin and penicillin/streptomycin. On the day of the assay, the cells are transferred to a beaker and dye-loaded in bulk using a Fluo-4 NW Calcium Assay Kit with probenecid (Invitrogen F36205) at 0.8E6 cells/mL for 1 hour at room temperature. After 1 hour, they are seeded in a 384-well tissue culture-treated plate at a density of 20,000 cells/well. Appropriately diluted test compound is added to the well to achieve a top concentration of 3,000 nM (diluted 3-fold with 10 doses total). The final concentration of DMSO is 1%. The buffer is HBSS (Invitrogen 14025) with 20 mM HEPES at pH 7.4. The cells are allowed to incubate 1 hour in the dark at room temperature. The plates are transferred to the FLIPR TETRA where MIP-1alpha in 1% BSA is added at the EC80 final concentration. Wells +/−MIP-1alpha containing diluted DMSO instead of compound serve as the controls. Intracellular calcium flux is recorded on the FLIPR TETRA, using excitation at 470/495 nm and emission at 515/575 nm. Data are analyzed using Activity Base software.
Method B: Non-adherent cells purchased from Chemicon Corporation (HTS005C), stably expressing recombinant CCR1 and G-alpha-16 are grown in RPMI 1640 medium (Mediatech 10-080-CM) supplemented with 10% FBS, 0.4 mg/mL Geneticin and penicillin/streptomycin. On the day of the assay, the cells are loaded with Calcium 4 dye (Molecular Devices R7448) with Probenecid (Invitrogen P346400) at 8E5 cells/mL for 1 hour at room temperature. After 1 hour, they are seeded in a 384-well tissue culture-treated plate at a density of 20,000 cells/well. Appropriately diluted test compound is added to the well to achieve a top concentration of 3,000 nM (diluted 4-fold with 10 doses total). The final concentration of DMSO is 1%. The buffer is HBSS (Invitrogen 14025) with 20 mM HEPES at pH 7.4. The cells incubate 30 minutes at 37 C and then 30 minutes at room temperature. The plates are transferred to the HAMAMATSU FDSS6000 where MIP-1alpha in 1% BSA is added at the EC80 final concentration. All plates must be read within 4 hours of the start of dye-loading. Wells +/−MIP-1alpha containing diluted DMSO instead of compound serve as the controls. Data are analyzed using Activity Base software.
In general terms: Calcium assays in cells follow changes in intracellular calcium, usually with a dye or a luminescent sensor.
In the case of `CCCC(NC(=O)c1cnn(-c2ccc(Cl)cc2)c1C)c1cncc(S(=O)(=O)CC)c1` (centres unmarked) [1-(4-Chloro-phenyl)-5-methyl-1H-pyrazole-4-carboxylic acid [1-(5-ethanesulfonyl-pyridin-3-yl)-butyl]-amide], the IC50 amounted to 94 nM.

For `CCCC(NC(=O)c1cnn(-c2ccc(Cl)cc2)c1C)c1cncc(S(C)(=O)=O)c1` (centres unmarked) [1-(4-Chloro-phenyl)-5-methyl-1H-pyrazole-4-carboxylic acid [1-(5-methanesulfonyl-pyridin-3-yl)-butyl]-amide], the IC50 was 15 nM.

Take `CCCC(NC(=O)c1cnn(-c2ccc(Cl)cc2)c1C)c1cncc(S(=O)(=O)NC)c1` (centres unmarked) [1-(4-Chloro-phenyl)-5-methyl-1H-pyrazole-4-carboxylic acid [1-(5-methylsulfamoyl-pyridin-3-yl)-butyl]-amide]: the IC50 was found to be 4.1 nM.

Consider `CCCC(NC(=O)c1cnn(-c2ccc(Cl)cc2)c1C)c1cncc(S(N)(=O)=O)c1` (centres unmarked) [1-(4-Chloro-phenyl)-5-methyl-1H-pyrazole-4-carboxylic acid [1-(5-sulfamoyl-pyridin-3-yl)-butyl]-amide], for which the IC50 is 31 nM and 35 nM.

Consider `CCCC(NC(=O)c1cnn(-c2ccc(Cl)cc2)c1C)c1ccc(S(=O)(=O)C2CC2)nc1` (centres unmarked) [1-(4-Chloro-phenyl)-5-methyl-1H-pyrazole-4-carboxylic acid [1-(6-cyclopropanesulfonyl-pyridin-3-yl)-butyl]-amide], for which the half-inhibitory concentration (IC50) came to 53 nM.

Take `CCCC(NC(=O)c1cnn(-c2ccc(Cl)cc2)c1C)c1ccc(S(=O)(=O)N(C)C)nc1` (centres unmarked) [1-(4-Chloro-phenyl)-5-methyl-1H-pyrazole-4-carboxylic acid [1-(6-dimethylsulfamoyl-pyridin-3-yl)-butyl]-amide]: the IC50 turned out to be 12 nM.

For the molecule `CCCC(NC(=O)c1cnn(-c2ccc(Cl)cc2)c1C)c1ccc(S(=O)(=O)CC)nc1` (centres unmarked) [1-(4-Chloro-phenyl)-5-methyl-1H-pyrazole-4-carboxylic acid [1-(6-ethanesulfonyl-pyridin-3-yl)-butyl]-amide], the IC50 turned out to be 60 nM.

Turning to `CCCC(NC(=O)c1cnn(-c2ccc(Cl)cc2)c1C)c1ccc(S(=O)(=O)NC)nc1` (centres unmarked) [1-(4-Chloro-phenyl)-5-methyl-1H-pyrazole-4-carboxylic acid [1-(6-methylsulfamoyl-pyridin-3-yl)-butyl]-amide], the IC50 worked out at 6.3 nM.

Take `CC[C@H](NC(=O)c1cnn(-c2ccc(Cl)cc2)c1C)c1ccnc(S(C)(=O)=O)c1` [1-(4-Chloro-phenyl)-5-methyl-1H-pyrazole-4-carboxylic acid [(S)-1-(2-methanesulfonyl-pyridin-4-yl)-propyl]-amide]: the IC50 was 29 nM.

Regarding `CC[C@H](NC(=O)c1cnn(-c2ccc(Cl)cc2)c1C)c1cnc(S(C)(=O)=O)s1` [1-(4-Chloro-phenyl)-5-methyl-1H-pyrazole-4-carboxylic acid [(S)-1-(2-methanesulfonyl-thiazol-5-yl)-propyl]-amide], the IC50 came out at 57 nM.

For the molecule `CC[C@H](NC(=O)c1cnn(-c2ccc(Cl)cc2)c1C)c1ccnc(S(=O)(=O)NC)c1` [1-(4-Chloro-phenyl)-5-methyl-1H-pyrazole-4-carboxylic acid [(S)-1-(2-methylsulfamoyl-pyridin-4-yl)-propyl]-amide], the IC50 is 19 nM.

Regarding `CCC[C@H](NC(=O)c1cnn(-c2ccc(Cl)cc2)c1C)c1cccc(Br)c1` [1-(4-Chloro-phenyl)-5-methyl-1H-pyrazole-4-carboxylic acid [(S)-1-(3-bromo-phenyl)-butyl]-amide], the IC50 is 28 nM.

On to `C=CCCC[C@H](NC(=O)c1cnn(-c2ccc(Cl)cc2)c1C)c1cccc(C(F)(F)F)c1` [1-(4-Chloro-phenyl)-5-methyl-1H-pyrazole-4-carboxylic acid [(S)-1-(3-trifluoromethyl-phenyl)-hex-5-enyl]-amide], for which the 50% inhibitory concentration (IC50) turned out to be 30 nM.

Regarding `CCC[C@H](NC(=O)c1cnn(-c2ccc(Cl)cc2)c1C)c1ccc(F)c(C(F)(F)F)c1` [1-(4-Chloro-phenyl)-5-methyl-1H-pyrazole-4-carboxylic acid [(S)-1-(4-fluoro-3-trifluoromethyl-phenyl)-butyl]-amide], the IC50 worked out at 10 nM.

For the molecule `CC[C@H](NC(=O)c1cnn(-c2ccc(Cl)cc2)c1C)c1ccc(F)c(C(F)(F)F)c1` [1-(4-Chloro-phenyl)-5-methyl-1H-pyrazole-4-carboxylic acid [(S)-1-(4-fluoro-3-trifluoromethyl-phenyl)-propyl]-amide], the IC50 was 13 nM.

As to `CC[C@H](NC(=O)c1cnn(-c2ccc(Cl)cc2)c1C)c1cncc(Br)c1` [1-(4-Chloro-phenyl)-5-methyl-1H-pyrazole-4-carboxylic acid [(S)-1-(5-bromo-pyridin-3-yl)-propyl]-amide], the IC50 is 20 nM.

As to `CCCC(NC(=O)c1cnn(-c2ccc(Cl)cc2)c1C)c1cncc(S(=O)(=O)C(C)C)c1` (centres unmarked) [1-(4-Chloro-phenyl)-5-methyl-1H-pyrazole-4-carboxylic acid {1-[5-(propane-2-sulfonyl)-pyridin-3-yl]-butyl}-amide], the 50% inhibitory concentration (IC50) was 72 nM.

Take `CCCC(NC(=O)c1cnn(-c2ccc(Cl)cc2)c1C)c1ccc(S(=O)(=O)NCCO)nc1` (centres unmarked) [1-(4-Chloro-phenyl)-5-methyl-1H-pyrazole-4-carboxylic acid {1-[6-(2-hydroxy-ethylsulfamoyl)-pyridin-3-yl]-butyl}-amide]: the half-inhibitory concentration (IC50) worked out at 97 nM.

Take `CCCC(NC(=O)c1cnn(-c2ccc(Cl)cc2)c1C)c1ccc(S(=O)(=O)CCCO)nc1` (centres unmarked) [1-(4-Chloro-phenyl)-5-methyl-1H-pyrazole-4-carboxylic acid {1-[6-(3-hydroxy-propane-1-sulfonyl)-pyridin-3-yl]-butyl}-amide]: the IC50 turned out to be 86 nM.

In the case of `CCCC(NC(=O)c1cnn(-c2ccc(Cl)cc2)c1C)c1ccc(S(=O)(=O)NC2CCOCC2)nc1` (centres unmarked) [1-(4-Chloro-phenyl)-5-methyl-1H-pyrazole-4-carboxylic acid {1-[6-(tetrahydro-pyran-4-ylsulfamoyl)-pyridin-3-yl]-butyl}-amide], the IC50 stood at 41 nM.

`CCC[C@H](NC(=O)c1cnn(-c2ccc(Cl)cc2)c1CNC)c1cccc(C(F)(F)F)c1` [1-(4-Chloro-phenyl)-5-methylaminomethyl-1H-pyrazole-4-carboxylic acid [(S)-1-(3-trifluoromethyl-phenyl)-butyl]-amide]: the IC50 worked out at 98 nM.

In the case of `CCCC(NC(=O)c1cnn(-c2ccc(Cl)cc2)c1C)c1ccnc(S(=O)(=O)CCC(=O)OC)c1` (centres unmarked) [3-[4-(1-{[1-(4-Chloro-phenyl)-5-methyl-1H-pyrazole-4-carbonyl]-amino}-butyl)-pyridine-2-sulfonyl]-propionic acid methyl ester], the IC50 amounted to 80 nM.

With `CCC[C@H](NC(=O)c1cnn(-c2ccc(Cl)cc2)c1CN)c1cccc(C(F)(F)F)c1` [5-Aminomethyl-1-(4-chloro-phenyl)-1H-pyrazole-4-carboxylic acid [(S)-1-(3-trifluoromethyl-phenyl)-butyl]-amide], the half-maximal inhibitory concentration (IC50) came out at 12 nM.
